Measured values taken from patent US20190169218A1, “AMPHIPATHIC COMPOUND HAVING NOVEL PENTA-SACCHARIDE HYDROPHILIC GROUP AND USE THEREOF” (Industry-University Cooperation Foundation Hanyang …, priority 2016, published 2019).

What was measured:
[1] = test system: T4L-β2AR-Gs or β2AR-Gs complexes; test: purification and stability of T4L-β2AR-Gs or β2AR-Gs complexes (analytical gel filtration, negative staining EM); parameters: species or system human
Procedure: The ability of PSE-C11 or TPS-E10L to purify and stabilize T4L-β2AR-Gs or β2AR-Gs complexes was measured using electron microscopy (EM) analysis.
Specifically, measurement of the ability of PSE-C11 for TPS-E10L to purify and stabilize T4L-β2AR-Gs or β2AR-Gs complexes was performed as follows. 100 μM T4L-β2AR solubilized in 0.1 wt % DDM was mixed with 120 μM Gs heterotrimers for 30 minutes. 0.5 units of apyrase (NEB) and 2 mM MgCl2 were added to the mixture, followed by a 1-hour incubation to form complexes. 1 wt % PSE-C11 or TPS-E10L was respectively added to the mixture to achieve a final concentration of 0.8%, and incubated for 30 minutes to allow DDM to be exchanged with PSE-C11 or TPS-E10L. […] Finally, proteins were eluted with a 0.05% (100×CMC) PSE-C11 or TPS-E10L buffer. Gel filtration was performed using a running buffer (20 mM HEPES (pH 7.5), 100 mM NaCl, 0.005% PSE-C11 or TPS-E10L, 1 μM BI, 100 μM TCEP) to purify T4L-β2AR-Gs complexes. To measure the stability of β2AR-Gs complexes present in PSE-C11 or TPS-E10L, analytical gel filtration was performed with running buffers of the same formulation at 12 hours, 1 day, 3 days, 7 days, and 15 days. After a 15 day-incubation, analytical gel filtration was performed using an amphiphilic compound pre-buffer having the same formulation as above without PSE-C11 or TPS-E10L.
In addition, negative staining EM analysis for T4L-β2AR-Gs or β2AR-Gs complexes present in PSE-C11 was performed as follows. Samples containing T4L-β2AR-Gs or β2AR-Gs were prepared to perform electron microscopy analysis using a conventional negative staining protocol (see Peisley, A. et al., G Protein-Coupled Receptors in Drug Discovery: Methods and Protocols, Methods in Molecular Biology, 1335, 29-38 (2015)), and imaging was performed by operating a Tecnai T12 electron microscope at 120 kV at room temperature. Images were recorded with a Gatan US4000 CCD camera at a 71,138×magnification with a defocus value of ˜[…].

[2] = target: T1, uric acid-xanthine/H+ symporter (UapA) (Emericella nidulans, UniProt Q07307, G411V); test: thermal stability of UapA by CPM analysis; parameters: species or system Aspergillus nidulans; details: CMC+0.04 wt % and CMC+0.2 wt %, 40° C., 120 minutes
T1 construct: GFP; made in house; host or cells: Saccharomyces cerevisiae FGY217
T1 sequence (Q07307 12-574 G411V): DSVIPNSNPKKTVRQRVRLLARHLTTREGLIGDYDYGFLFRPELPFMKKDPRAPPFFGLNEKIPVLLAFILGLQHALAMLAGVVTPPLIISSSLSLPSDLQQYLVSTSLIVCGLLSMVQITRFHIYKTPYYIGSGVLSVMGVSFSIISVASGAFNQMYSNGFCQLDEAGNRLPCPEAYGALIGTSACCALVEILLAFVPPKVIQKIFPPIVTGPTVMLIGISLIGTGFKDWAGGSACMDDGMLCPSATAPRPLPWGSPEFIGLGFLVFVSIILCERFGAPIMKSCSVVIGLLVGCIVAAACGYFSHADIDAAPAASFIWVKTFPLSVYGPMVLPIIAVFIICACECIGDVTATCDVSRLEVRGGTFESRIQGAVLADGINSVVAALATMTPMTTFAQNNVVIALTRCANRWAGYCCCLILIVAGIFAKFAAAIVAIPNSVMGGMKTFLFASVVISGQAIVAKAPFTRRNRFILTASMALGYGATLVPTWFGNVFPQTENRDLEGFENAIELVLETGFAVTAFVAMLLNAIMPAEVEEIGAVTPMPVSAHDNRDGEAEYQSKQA
Procedure: The ability of TPSs (TPS-As, TPS-Es and TPS-ELs) to stabilize the structure of uric acid-xanthine/H+ symporter (UapA) isolated from Aspergillus nidulans was measured. The structural stability of UapA was evaluated using a sulfhydryl-specific fluorophore, N-[4-(7-diethylamino-4-methyl-3-coumarinyl)phenyl]maleimide (CPM).
Specifically, UapAG411V1-11 (hereinafter, referred to as ‘UapA’) was expressed in a Saccharomyces cerevisiae FGY217 strain as a GFP fusion protein, and was isolated using a sample buffer (20 mM Tris (pH 7.5), 150 mM NaCl, 0.03% DDM, 1 mM xanthine). The transporter was concentrated to about 10 mg/mL using a 100 kDa molecular weight cut-off filter (Millipore). The transporter was diluted with a CMC+0.04 wt % or CMC+0.2 wt % buffer at a ratio of 1:150 in a Greiner 96-well plate containing one of TPS-As (TPS-A6, TPS-A7 or TPS-A8), TPS-Es (TPS-E6, TPS-E7 or TPS-E8), TPS-ELs (TPS-E8L, TPS-E9L, TPS-E10L or TPS-E11L), MNG-3 or DDM (control group). […] During incubation, fluorescence emission intensity was monitored using a microplate spectrophotometer set at excitation and emission wavelengths of 387 and 463 nm, respectively. The maximum value of fluorescence intensity was used to calculate the relative percentage of folded transporters during the incubation period. […]

[3] = test system: T4L-β2AR-Gs or β2AR-Gs complexes; details: purified by DDM, 4° C., reported in the prior art; cited from earlier work

CCCCCCCCCCCOCC(COCCCCCCCCCCC)O[C@@H]1OC(CO[C@@H]2OC(CO)[C@@H](O)C(O)C2O)[C@@H](O[C@@H]2OC(CO)[C@@H](O)C(O)C2O)C(O[C@@H]2OC(CO)[C@@H](O)C(O)C2O)C1O[C@@H]1OC(CO)[C@@H](O)C(O)C1O (stereo partly shown) [PSE-C11]
stability of β2AR-Gs complexes (analytical gel filtration) ([1]; after incubation for 15 and 17 days): no separation of the complexes was observed at all
stability of complexes ([1]; buffer without the amphipathic compound as eluent): completely stable

CCCCCCCCOCC(COCCCCCCCC)(COCCCCCCCC)CO[C@@H]1OC(CO[C@@H]2OC(CO)[C@@H](O)C(O)C2O)[C@@H](O[C@@H]2OC(CO)[C@@H](O)C(O)C2O)C(O[C@@H]2OC(CO)[C@@H](O)C(O)C2O)C1O[C@@H]1OC(CO)[C@@H](O)C(O)C1O (stereo partly shown) [TPS-E8]
maintaining folding state of UapA (CPM) [2]: the most excellent among TPS-As/Es

CCCCCCCCCCCCO[C@@H]1O[C@H](CO)[C@@H](O[C@H]2O[C@H](CO)[C@@H](O)[C@H](O)[C@H]2O)[C@H](O)[C@H]1O [DDM, n-dodecyl-β-D-maltopyranoside, reference compound]
stability of T4L-β2AR-Gs complexes [3]: complex separation was observed even after 2 days of incubation
